For series [1], the target named is HuNoV (GII.4) RdRp (Norovirus Hu/GII.4/Sydney/NSW0514/2012/AU, UniProt K4L8Z7). Briefly: Quantitative fluorescent RdRp activity assay (PicoGreen, poly(C) template). It is filed as biochemical, human norovirus Sydney 2012. The following applies: for IC50: HuNoV (GII.4) RdRp activity, six concentrations 0.1–100 µM, mean ± SD; for inhibition at 20 µM: read-out: inhibition of HuNoV RdRp activity at fixed concentration. The method, then: The newly synthesised compounds, including the carboxylate ester derivatives 34–35 and 7 from the Core Hopping approach, were evaluated for their enzymatic inhibition of human norovirus Sydney 2012 (HuNoV (GII.4)) RdRp activity in vitro, using a quantitative fluorescent assay. Compounds were tested at six different concentrations (concentration range examined: 0.1–100 µM) and compared to the relative activity of mock treated samples containing the vehicle only (0.5% DMSO [vol/vol]). PPNDS [Pyridoxal-5′-phosphate-6-(2′-naphthylazo-6′-nitro-4′,8′-disulfonate) tetrasodium salt], a previously reported potent inhibitor of NoV RdRp activity, and 1 were used as positive controls. Dose-dependent inhibitory response curves were used to establish IC50 values for the eight test compounds, as reported in Table 1 (see also Supplementary Fig. S1).
The newly prepared compounds 48–60 were initially evaluated against norovirus Sydney 2012 RdRp activity in vitro using a quantitative fluorescent assay. Compounds were tested at a fixed concentration of 20 µM and compared to the relative activity of mock treated samples. PPNDS and 1 were used as positive controls. […] These two rings are structural features present in 1 and in one of its derivatives we have previously reported. […] From these observations, the thiophene ring appears not to influence inhibitory activity. Derivatives in which the central core of 48 has been used to link the two terminal hydrophobic rings of 1 or of its derivatives we have previously reported[25] (55, 57, 58) appear to retain the RdRp inhibitory activity found for 48 (~20% at 20 µM). A similar effect is obtained when a sulfonyl group, as in our hit 1, is used to link ring 2, regardless if it is a thiazole (59) or an unsubstituted phenyl ring (60), to the rest of the molecule. […] Overall, even if showing a reduced biochemical activity in comparison with 1, some of the new derivatives can be considered as modest HuNoV RdRp inhibitors at 20 µM.
Fluorescent RdRp activity assays were carried out as previously described[12],[29]. Briefly, RdRp activity was quantified by monitoring the formation of double-stranded RNA (dsRNA) from a single stranded homopolymeric template, poly(C) (Sigma Aldrich), using the fluorescent dye PicoGreen (Life Technologies, Carlsbad, CA, USA). RdRp assays were performed in 384-well plates, and each reaction mixture contained 400 ng enzyme, 45 μM GTP, 10 ng/μL poly(C) RNA, 2.5 mM MnCl2, 5 mM dithiothreitol, (DTT), 0.01% bovine serum albumin (BSA), and 0.005% Tween 20 in 20 mM Tris-HCl, pH 7.5, with a final reaction volume of 25 μL. The PPNDS and compound 1 were used as a positive controls. RdRps were incubated for 10 mins at 30 °C in the presence of the test compounds or the compound vehicle DMSO (0.5% vol/vol) before addition into the reaction mixture, which was then allowed to run 15 min at 30 °C then terminated with 10 mM EDTA, followed by PicoGreen staining and dsRNA quantitation. GraphPad Prism V6.05 (La Jolla, CA, USA) was used to plot the IC50 values. A secondary gel-based polymerase activity assay was used as a counter-screen as described below, to exclude the possibility of RdRp activity enhancement. Primed elongation activity was examined in a gel-based assay as previously described[12],[29] using the RNA template (PE44-NoV). Gels were imaged using BioRad (Hercules, CA, U.SA) Geldoc Universal Hood II, running BioRad Image Lab software, V4.1, build 16.

For series [2], the system named is MNV. Put plainly: MNV CPE reduction assay (MTS) in RAW 264.7 cells. It is filed as cell-based, mouse norovirus (MNV-1.CW1). The following applies: Norovirus, RAW264.7, in Mus musculus. Here is the method:
The newly prepared compounds 2–7 and 34–35 were evaluated for their antiviral effect against the genogroup V mouse norovirus (MNV) using the mouse macrophage cell line RAW264.7. This assay evaluates the ability of the compounds to protect infected cells from the virus-induced cytopathic effect, thus being suitable to identify inhibition of virus replication at every step of the virus life cycle, and representing a robust cellular assay available for the rapid evaluation of potential norovirus inhibitors. Compounds identified using MNV have shown effects against HuNoV in vitro and in vivo, as in the case of nucleoside RdRp inhibitor 2′-C-methylcytidine (2CMC)[34]–[36]. Unfortunately, despite not presenting the aqueous solubility issues we had previously encountered for 1[29], no significant antiviral effect could be observed in this assay for the new compounds up to the maximum concentration tested. The new structural modifications, despite retaining inhibition of the RdRp in an isolated enzyme activity assay and showing no cytotoxic effects at the test concentrations in the MNV antiviral assay (Supplementary Table S1), are correlated with a lack of antiviral activity. As these new structures present the same limitation of most non-nucleoside HuNoV polymerase inhibitors reported so far[22], we were prompted to apply a different computer-aided strategy to further modify the scaffold of 1, with the aim to achieve an antiviral effect in cellular systems. […]
Since the main scope of this work was to find new norovirus inhibitors which show antiviral effects against both the HuNoV RdRp and in norovirus-infected cells, priority was given to the evaluation of most of the new molecules for their antiviral activity against MNV in infected RAW cells. The nucleoside 2′-C-methylcytidine was used as positive control. The test compounds were evaluated at eight different concentrations (range 0.6–100 µM) and their ability to reduce the virus-induced cytopathic effect was assessed.
Cells and virus: MNV (virus strain MNV-1.CW1) was propagated in RAW 264.7 cells grown in DMEM (Life Technologies, Gent, Belgium) supplemented with 10% or 2% FBS, 2 mM L-glutamine, 20 mM HEPES, 0.075 g/L sodium bicarbonate, 1 mM sodium pyruvate, 100 U penicillin/mL and 100 µg/mL streptomycin at 37 °C in a humidified atmosphere of 5% CO2. The human norovirus GI.1 replicon harboring gastric tumor-1 cell line (HGT-NV) (kindly provided by Dr. Ian Goodfellow, University of Cambridge) was maintained in DMEM supplemented with 10% FBS, 2mM L-glutamine, 0.075 g/L sodium bicarbonate and 1.0 mg/ml of Geneticin (G418; Life Technologies), at 37 °C in a humidified atmosphere of 5% CO2[34].
Antiviral assay with MNV: The antiviral activity of the Compounds was determined using an MTS [3-(4,5-dimethylthiazol-2-yl)-5-(3-carboxymethoxyphenyl)-2-(4-sulfophenyl)-2H-tetrazolium]-based cytopathic effect (CPE) reduction assay. […] Then, a MTS-phenazinemethosulfate (MTS/PMS) stock solution [(2 mg/mL MTS (Promega, Leiden, The Netherlands) and 46 µg/mL PMS (Sigma–Aldrich, Bornem, Belgium) in PBS at pH 6–6.5)] was diluted 1/20 in MEM (Life Technologies, Gent, Belgium) and 75 µL were added to each well. After 2 h, the optical density (OD) was read at 498 nm. The %CPE reduction was calculated as [(ODtreated)MNV − ODVC]/[ODCC − ODVC] × 100, where ODCC represents the OD of the uninfected untreated cells, whereas ODVC and (ODtreated)MNV represent the OD of infected untreated cells and virus-infected cells treated with a compound concentration, respectively. The 50% effective concentration (EC50) was defined as the compound concentration that protected 50% of the cells from virus-induced CPE[34].

The nature of series [3]: Cytotoxicity by the MTS method on uninfected cells. It is filed as cell-based. As to conditions: mouse, uninfected RAW 264.7 cells. Here is the method: Cytotoxicity: The cytotoxicity of the Compounds was evaluated by the MTS method, by exposing uninfected cells to the same concentrations of compounds for 3 days. The %cell viability was calculated as (ODtreated/ODCC) × 100, where ODCC is the OD of uninfected untreated cells and ODtreated are uninfected cells treated with compound. The CC50 was defined as the compound concentration that reduces the number of viable cells by 50%[34].
For orientation: Formazan colour is commonly taken as a measure of viable cells.

The mark [4] stands for this setting: Supplementary Table S1, at least two independent experiments.
Setting [5] is: Table 2, RAW 264.7, range 0.6–100 µM, at least three independent experiments.
Where [6] appears, read: Table 2, at least three independent experiments.

Molecules are shown by their SMILES.

By IC50 is commonly meant the concentration needed to halve the response being measured. What is called EC50 is the concentration that produces a half-maximal response. The low end stands for higher potency in that assay, the high end for lower potency in that assay. As usually defined, the CC50 is the concentration that lowers cell viability or growth by half. Read a high CC50 as lower toxicity to the cells. Consider `O=C1NN(c2ccccc2)C(=O)/C1=C/c1ccc(-c2ccc(S(=O)(=O)Nc3ncco3)cc2)o1` [Compound 5, (E)-4-(5-((3,5-dioxo-1-phenylpyrazolidin-4-ylidene)methyl)furan-2-yl)-N-(oxazol-2-yl)benzenesulfonamide], for which the concentration for half-maximal inhibition (IC50) in series [1] is 12.8 ± 2.6 µM. The compound further displayed an EC50 in series [2] (setting [4]) of over 100 µM. For the same compound, the CC50 at 3 days in series [3] (setting [4]) was over 100 µM.

As to `O=C1NN(c2ccc(C(=O)O)cc2)C(=O)/C1=C/c1ccc(-c2ccc(S(=O)(=O)Nc3ccccc3)cc2)o1` [Compound 2, (E)-4-(3,5-dioxo-4-((5-(4-(N-phenylsulfamoyl)phenyl)furan-2-yl)methylene)pyrazolidin-1-yl)benzoic acid], the IC50 in series [1] was 17.2 ± 2.4 µM. Moreover, the EC50 in series [2] (setting [4]) was over 100 µM. Besides, in series [3] (setting [4]), the CC50 at 3 days was over 100 µM.

For the compound `O=C(NC(=S)Nc1ccc(N2CCN(C(=O)c3cccs3)CC2)cc1)c1sc2ccccc2c1C(F)(F)F` [Compound 50, N-((4-(4-(Thiophene-2-carbonyl)piperazin-1-yl)phenyl)carbamothioyl)-3-(trifluoromethyl)benzo[b] thiophene-2-carboxamide], the inhibition at 20 µM in series [1] is 15 to 20%.

Consider `C[C@@]1(O)[C@H](O)[C@@H](CO)O[C@H]1n1ccc(N)nc1=O` [Compound 2CMC, 2′-C-methylcytidine, reference compound], for which a half-maximal response in series [2] (setting [5]) (EC50) required 2 ± 1 µM. Moreover, in series [3] (setting [6]), the CC50 at 3 days stood at 16 ± 2 µM.

For the compound `O=C1NN(c2cccc(C(=O)O)c2)C(=O)/C1=C/c1ccc(-c2ccc(S(=O)(=O)Nc3ccccc3)cc2)o1` [Compound 3, (E)-3-(3,5-dioxo-4-((5-(4-(N-phenylsulfamoyl)phenyl)furan-2-yl)methylene)pyrazolidin-1-yl)benzoic acid], the IC50 in series [1] is 22.5 ± 6.5 µM. Besides, the EC50 in series [2] (setting [4]) was over 100 µM. This compound had a CC50 at 3 days in series [3] (setting [4]) of over 100 µM.

Consider `O=C1NN(c2ccccc2)C(=O)/C1=C/c1ccc(-c2ccc(S(=O)(=O)Nc3nc4ccccc4[nH]3)cc2)o1` [Compound 6, (E)-N-(1H-benzo[d]imidazol-2-yl)-4-(5-((3,5-dioxo-1-phenylpyrazolidin-4-ylidene)methyl)furan-2-yl)benzenesulfonamide], for which the IC50 in series [1] was found to be 26.7 ± 2 µM. Besides, in series [2] (setting [4]), the EC50 was found to be 89 ± 2 µM. The compound further yielded a CC50 at 3 days in series [3] (setting [4]) of over 100 µM.

As for `CCOC(=O)c1cccc(N2NC(=O)/C(=C\c3ccc(-c4ccc(S(=O)(=O)Nc5ccccc5)cc4)o3)C2=O)c1` [Compound 35, Ethyl(E)-3-(3,5-dioxo-4-((5-(4-(N-phenylsulfamoyl)phenyl)furan-2-yl)methylene)pyrazolidin-1-yl)benzoate], the IC50 in series [1] worked out at 18.9 ± 3.1 µM. The compound further showed an EC50 in series [2] (setting [4]) of over 100 µM. The compound further had a CC50 at 3 days in series [3] (setting [4]) of over 100 µM.

As to `O=C(NC(=S)Nc1ccc(N2CCN(C(=O)c3cccs3)CC2)cc1)c1ccccc1` [Compound 51, N-((4-(4-(Thiophene-2-carbonyl)piperazin-1-yl)phenyl)carbamothioyl)benzamide], in series [1], the inhibition at 20 µM is about 15%.

With `O=C(NC(=S)Nc1ccc(N2CCN(C(=O)c3nccs3)CC2)cc1)c1ccccc1` [Compound 58, N-((4-(4-(Thiazole-2-carbonyl)piperazin-1-yl)phenyl)carbamothioyl)benzamide], the inhibition at 20 µM in series [1] is about 20%.

Take `Cc1ccc(C(=O)NC(=S)Nc2ccc(N3CCN(C(=O)c4ccccc4)CC3)cc2)cc1` [Compound 57, N-((4-(4-Benzoylpiperazin-1-yl)phenyl)carbamothioyl)-4-methylbenzamide]: the inhibition at 20 µM in series [1] is about 20%. For the same compound, in series [2] (setting [5]), the EC50 was over 100 µM. For the same compound, the CC50 at 3 days in series [3] (setting [6]) was over 100 µM.

Consider `O=C(NC(=S)Nc1ccc(N2CCN(C(=O)c3cccs3)CC2)cc1)c1cc2ccccc2s1` [Compound 49, N-((4-(4-(Thiophene-2-carbonyl)piperazin-1-yl)phenyl)carbamothioyl)benzo[b]thiophene-2-carboxamide], for which the inhibition at 20 µM in series [1] lay within 15 to 20%. The compound further showed an EC50 in series [2] (setting [5]) of over 100 µM. Moreover, the CC50 at 3 days in series [3] (setting [6]) was over 100 µM.

Regarding `O=C(NC(=S)Nc1ccc(N2CCN(C(=O)c3ccccc3)CC2)cc1)c1ccccc1` [Compound 55, N-((4-(4-Benzoylpiperazin-1-yl)phenyl)carbamothioyl)benzamide], in series [1], the inhibition at 20 µM is about 20%. In addition, the EC50 in series [2] (setting [5]) is over 100 µM. This compound came in with a CC50 at 3 days in series [3] (setting [6]) of 61.9 µM.

For `O=C(Nc1ccc(N2CCN(C(=O)c3cccs3)CC2)cc1)c1ccccc1` [Compound 73, N-(4-(4-(thiophene-2-carbonyl)piperazin-1-yl)phenyl)benzamide], in series [1], the inhibition at 20 µM is about 40%.

These data come from article PMC6895199, “A new antiviral scaffold for human norovirus identified with computer-aided approaches on the viral polymerase” (Scientific Reports, 2019).
